# US12029777B2, “Serine proteinase inhibitors: Serp-1 and Serp-1 RCL-derived peptides effect on microbiome composition and uses thereof” (ARIZONA BOARD OF REGENTS ON BEHALF OF ARIZONA STATE …, priority 2019, dated 2024)
# Entries after “also recorded” stand apart in the source; their conditions may differ.
# Experiments:
# [1] = system: CD3+, CD4+ and CD8+ cells in the lungs; experiment: Immunohistochemistry of CD3+, CD4+, CD8+ cells in lungs at 3 days after MHV-68 infection; type: in vivo, mice; settings: for CD3 infiltration-promoting effect and CD8 bias after antibiotic treatment: after antibiotic depletion of gut microbiome; for CD8+ staining in lungs / detectable CD3+ cells in the lungs / pulmonary CD4+ cells: no antibiotics, 3-day follow-up
# Procedure: (§1) Immunohistochemistry. FFPE blocks containing lung tissue were sectioned into 4-6 μm ribbons, captured on charged glass and dried overnight at 37° C. prior to processing. Slides were rehydrated and epitopes retrieved by boiling in sodium citrated buffer. Endogenous peroxidases were quenched with 3% hydrogen peroxide, slides were blocked in 5% bovine serum albumin in TBS/0.1% Tween 20 and sections were probed with rabbit polyclonal antibody against CD3 (Abcam ab5690; 1:200), CD4 (Abcam ab183685; 1:1000) or CD8 (Abcam ab209775; 1:2000). For MHV-68 detection, 1:500 rabbit anti-serum or pre-immune serum (as control) were used for immunostaining (kind gift of Dr. H. W. Virgin 1119). 1:500 goat anti-rabbit HRP was used for secondary staining (Jackson Immuno Research 111-035-144). […] Sections were imaged with a 40×/0.75NA objective.
# MHV-68 [2] = experiment: Lung histopathology and quantitative morphometry at 3 days after MHV-68 infection; type: in vivo, mice; settings: for severe pulmonary pathology (consolidation and inflammation): absence of antibiotics, vs saline; for severe pulmonary pathology (consolidation and inflammation) / early lung pathology after antibiotic treatment: 3-day follow-up; for alveolar wall thickness: no antibiotics, versus saline-treated controls; for alveolar lumen area: without antibiotic pre-treatment, compared to saline-treated controls
# Procedure: Histopathology. Mice were euthanized at 3 days follow-up after infection by carbon dioxide asphyxiation followed by cervical dislocation. Organs were harvested and fixed in 10% neutral buffered formalin. Samples were dehydrated through graded alcohol, paraffin-embedded, sectioned into 4-6 μm ribbons, captured on charged glass and dried overnight at 37° C. prior to processing for histopathology. Slides were rehydrated, stained with Gill's hematoxylin No. 3 and Eosin Y (H&E) according to standard procedure, dehydrated and mounted in Cytoseal XYL (Thermo Fisher Scientific, USA).
# Quantitative morphometry. H&E-stained aorta, lung and colon sections were imaged with a 20×/0.5NA objective on an Olympus BX51 microscope equipped with an Olympus DP74 camera operated by cellSens Dimensions v1.16 software. Objective-calibrated measurements of alveolar septal thickness and lumen area were collected using cellSens Dimensions. At least 50 measurements were collected and averaged for each mouse, and at least three mice were examined for each group. Images were processed for visualization in figures using ImageJ/FIJI v1.52i92.
# MHV-68 [3] = experiment: Survival after lethal intraperitoneal MHV-68 infection of IFNγR−/− mice; type: in vivo; settings: for survival at 150 days: 100 ng/g IP injections for 30 days, no antibiotics, MHV-68 infected IFNγR−/− mice; for median survival: 10 days antibiotic pre-treatment, then MHV-68 infection and 30 days IP treatment; for efficacy after antibiotic treatment versus saline treatment after antibiotics: +Abx vs Saline+Abx, survival; for survival after MHV-68 infection (modified S-7 peptides): MHV-68 infection model
# Description: Animals. IFNγR^−/− mice (B6.129S7-Ifngr1^tm1Agt/J) were purchased from the Jackson Laboratory (Bar Harbor, ME, USA). Animals were housed in barrier conditions at the University of Florida Animal Care Services vivarium and bred under specific pathogen-free conditions. Mice were weaned at 3 weeks, maintained on a 12-hour light-dark cycle and were fed water and standard rodent chow ad libitum.
# Antibiotic treatment. At 4 weeks of age, IFNγR^−/− mouse cohorts were transferred from the ABSL1 colony to a separate, ABSL2 colony. Gut microbiome suppression was achieved by replacing standard drinking water with autoclaved reverse osmosis water (obtained from the same animal care facility) containing an antibiotic cocktail (Table 1) composed of Streptomycin (2 g/L), Gentamicin (0.5 g/L), Bacitracin (1 g/L) and Ciprofloxacin (0.125 g/L) for 10 days. One day (24 hours) prior to infection, medicated water was replaced with standard animal care facility water, which was maintained for the remainder of the experiment.
# MHV-68 infection. On day 11 (after 10 days of antibiotics) mice (5 weeks old) were infected with MHV-68 at a dose of 12.5×10^6 PFU in 0.1 mL DMEM by intraperitoneal (IP) injection as previously described22,25,27,30. Mice were returned to the colony and monitored for signs of distress for the duration of the experiment. Mice were either followed for 150 days to determine survival or euthanized at 3 days post-infection and organs harvested into formalin for histology or RNAlater (Thermo Scientific, USA) for microbiome analyses. Details on the numbers of MHV-68-infected mice in this study are detailed in Table 2.
# Statistical analysis. Survival and pathology statistics were analyzed with GraphPad Prism v8.0.1. Kaplan-Meier survival statistics were calculated using Log-rank (Mantel-Cox) testing. For visualization, individual comparison curves are presented. Lung pathology statistics were compared using a Two-Way ANOVA with a Fisher's LSD or Tukey's post-hoc test. Bars are mean±standard error. P-value less than 0.05 was considered significant. *p<0.05, **p<0.01, ***p<0.001, ****p<0.0001; n.s. is not significant.
# MHV-68 infections establish latency with chronic infection in wildtype mice, causing only flu-like symptoms. Conversely, intraperitoneal infection of mice with underlying immune deficiency, as for IFNγR^−/− mice, results in a lethal large vessel vasculitis, colitis and hemorrhagic pneumonia with early mortality. Intranasal infection, an alternative model for MHV-68, is not a model for severe vasculitic syndromes. This intraperitoneal infection model of vasculitis has been used to study the pathogenesis of gammaherpesvirus host-pathogen interactions, as well as to investigate the potential for anti-inflammatory treatment of associated inflammatory vasculitic syndromes. Intraperitoneal infection of IFNγR−/− mice with 12.5×10^6 pfu was performed with follow-up for 150 days to determine survival rates. MHV-68 infection with administration of control saline treatment alone for 30 days was lethal, with a median survival of 41 days. […] Thus, Serp-1 and S-7 protect IFNγR−/− mice after lethal MHV-68 infection.
# The potential for dependence of Serp-1 and S-7 therapeutic efficacy on the gut bacterial microbiome in MHV-68 infected IFNγR^−/− mice was investigated. Mice were treated with medicated drinking water (Table 1) for 10 days, placed on normal water for 24 hours, then infected with MHV-68 and concurrently treated for 30 days with either Serp-1 or S-7 by IP injection. Mice were followed for survival or 3-day follow-up (FIG. 2A).
# MHV-68 [4] = experiment: MHV-68 antigen immunostaining in lungs at 3 days after infection; type: in vivo, mice; settings: for MHV-68 antigen levels in the lungs: without antibiotic treatment, 3-day follow-up
# Procedure: as §1
# uPA = uPA (Homo sapiens, UniProt P00749); experiment: In vitro uPA substrate conversion assay; type: biochemical; settings: presence of the antibiotic cocktail
Molecule,CD3 infiltration-promoting effect and CD8 bias after antibiotic treatment [1],CD8+ staining in lungs [1],detectable CD3+ cells in the lungs [1],pulmonary CD4+ cells [1],severe pulmonary pathology (consolidation and inflammation) (MHV-68 [2]),early lung pathology after antibiotic treatment (MHV-68 [2]),alveolar lumen area protection after antibiotic treatment (MHV-68 [2]; after antibiotics),reduction in alveolar wall thickness after treatment with antibiotics (MHV-68 [2]; after antibiotics),alveolar wall thickness (MHV-68 [2]),alveolar lumen area (MHV-68 [2]),survival at 150 days (MHV-68 [3]),median survival (MHV-68 [3]),efficacy after antibiotic treatment versus saline treatment after antibiotics (MHV-68 [3]),decrease in detectable MHV68 after antibiotic pre-treatment (MHV-68 [4]),MHV-68 antigen levels in the lungs (MHV-68 [4]),survival after MHV-68 infection (modified S-7 peptides) (MHV-68 [3]),inhibition of uPA activity in presence of broad-spectrum antibiotic cocktail (uPA)
GTTASSDTAITLIPR (Reactive Center Loop Polypeptide sequence of for a serine protease inhibitor) [S-7],loss,significant increases,significantly increased,no appreciable effect,considerably reduced,markedly worse,nullified any level of protection,lost,significant reduction,significantly increased,60%,18 days,not significantly different,partially reversed,significantly reduced,,
GTTASSDTAITDEPR (Modified S7 peptide MPS7-9),,,,,,,,,,,,,,,,improved survival,
GTTASSDTAITLEPR (Modified S-7 peptide MPS7-8),,,,,,,,,,,,,,,,improved survival,
"Serp-1: secreted myxomavirus-derived serine protease inhibitor (serpin), purified protein, SEQ ID NO: 1 (protein, Serp-1 recombinant polypeptide) MKYLVLVLCLTSCACRDIGLWTFRYVYNESDNVVFSPYGLTSALSVLRIAAGGNTKREIDVPESVVEDSDAFLALRELFVDASVPLRPEFTAEFSSRFNTSVQRVTFNSENVKDVINSYVKDKTGGDVPRVLDASLDRDTKMLLLSSVRMKTSWRHVFDPSFTTDQPFYSGNVTYKVRMMNKIDTLKTETFTLRNVGYSVTELPYKRRQTAMLLVVPDDLGEIVRALDLSLVRFWIRNMRKDVCQVVMPKFSVESVLDLRDALQRLGVRDAFDPSRADFGQASPSNDLYVTKVLQTSKIEADERGTTASSDTAITLIPRNALTAIVANKPFMFLIYHKPTTTVLFMGTIT",loss,strong trend towards increase,trended towards increasing,no appreciable effect,considerably reduced,markedly worse,,lost,significant reduction,trend toward an increase,60%,19 days,not significantly different,partially reversed,significantly reduced,,unaffected; also recorded: not affected
